Consider four compounds from patent publication US11912737B2, “19-nor neuroactive steroids and methods of use thereof” (Sage Therapeutics, Inc., priority 2013, dated 2024).

The target of one assay is α4β3δ GABAA receptor (Homo sapiens (Human), UniProt P28472+P48169). Briefly: Patch clamp electrophysiology of recombinant α4β3δ GABAA receptors (CHO cells). As to conditions: read-out: GABA (α4β3δ) Qpatch in CHO, % efficacy at 10 μM. Background: Patch clamp records ionic current or voltage across a cell membrane.
The target of a further assay is α1β2γ2 GABAA receptor (Homo sapiens (Human), UniProt P14867+P47870). As to conditions: LTK, read-out: GABA (α1β2γ2) Qpatch in Ltk, % efficacy at 10 μM, Qpatch, Ltk cells, 10 μM compound, 2 μM GABA.
In assay [1] the target is [35S]-TBPS binding, rat brain cortical membranes. Briefly: Steroid inhibition of [35S]-TBPS binding. To be noted: 3 nM [35S]-TBPS, in the presence of 5 μM GABA. As to the method: Steroid Inhibition of TBPS Binding
[35S]-t-Butylbicylophorothionate (TBPS) binding assays using rat brain cortical membranes in the presence of 5 μM GABA has been described (Gee et al, J. Pharmacol. Exp. Ther. 1987, 241, 346-353; Hawkinson et al, Mol. Pharmacol. 1994, 46, 977-985; Lewin, A. H et al., Mol. Pharmacol. 1989, 35, 189-194).
Briefly, cortices are rapidly removed following decapitation of carbon dioxide-anesthetized Sprague-Dawley rats (200-250 g). The cortices are homogenized in 10 volumes of ice-cold 0.32 M sucrose using a glass/teflon homogenizer and centrifuged at 1500×g for 10 min at 4° C. The resultant supernatants are centrifuged at 10,000×g for 20 min at 4° C. to obtain the P2 pellets. The P2 pellets are resuspended in 200 mM NaCl/50 mM Na—K phosphate pH 7.4 buffer and centrifuged at 10,000×g for 10 min at 4° C. This washing procedure is repeated twice and the pellets are resuspended in 10 volumes of buffer. Aliquots (100 μL) of the membrane suspensions are incubated with 3 nM [^35S]-TBPS and 5 μL aliquots of test drug dissolved in dimethyl sulfoxide (DMSO) (final 0.5%) in the presence of 5 μM GABA. The incubation is brought to a final volume of 1.0 mL with buffer. Nonspecific binding is determined in the presence of 2 μM unlabeled TBPS and ranged from 15 to 25%. Following a 90 min incubation at room temp, the assays are terminated by filtration through glass fiber filters (Schleicher and Schuell No. 32) using a cell harvester (Brandel) and rinsed three times with ice-cold buffer. Filter bound radioactivity is measured by liquid scintillation spectrometry. Non-linear curve fitting of the overall data for each drug averaged for each concentration is done using Prism (GraphPad).
Various compounds are or can be screened to determine their potential as modulators of [^355]-TBPS binding in vitro. These assays are or can be performed in accordance with the above discussed procedures.

Description for α1β2γ2 GABAA receptor: (§1) LTK cells are stably transfected with the α1β2γ2 subunits of the GABA receptor and CHO cells are transiently transfected with the α4β3δ subunits via the Lipofecatamine method. Cells were passaged at a confluence of about 50-80% and then seeded onto 35 mm sterile culture dishes containing 2 ml culture complete medium without antibiotics or antimycotics.
(§2) Whole cell currents were measured with HEKA EPC-10 amplifiers using PatchMaster software or by using the high throughput QPatch platform (Sophion). […] In some cases 0.005% cremophor was also added. Intracellular (pipette) solution contained: KCl 130 mM, MgCl2 1 mM, Mg-ATP 5 mM, HEPES 10 mM, EGTA 5 mM, pH 7.2. During experiments, cells and solutions were maintained at room temperature (19° C.-30° C.). For manual patch clamp recordings, cell culture dishes were placed on the dish holder of the microscope and continuously perfused (1 ml/min) with bath solution. After formation of a Gigaohm seal between the patch electrodes and the cell (pipette resistance range: 2.5 MΩ-6.0 MΩ; seal resistance range: >1 GΩ) the cell membrane across the pipette tip was ruptured to assure electrical access to the cell interior (whole-cell patch-configuration). For experiments using the QPatch system, cells were transferred as suspension to the QPatch system in the bath solution and automated whole cell recordings were performed.
(§3) Cells were voltage clamped at a holding potential of −80 mV. For the analysis of test articles, GABA receptors were stimulated by 2 μM GABA after sequential pre-incubation of increasing concentrations of the test article. Pre-incubation duration was 30 s and the duration of the GABA stimulus was 2 s. Test articles were dissolved in DMSO to form stock solutions (10 mM). Test articles were diluted to 0.01, 0.1, 1, and 10 μM in bath solution. All concentrations of test articles were tested on each cell. The relative percentage potentiation was defined as the peak amplitude in response to GABA EC20 in the presence of the test article divided by the peak amplitude in response to GABA EC20 alone, multiplied by 100.
Description for α4β3δ GABAA receptor: as §1, §2, §3

For `C[C@H]1C[C@H]2[C@@H](CC[C@@H]3[C@@H]2CC[C@]2(C)[C@@H](C(=O)CN4CCOCC4)CC[C@@H]32)C[C@]1(C)O` [Entry 45], the Emax at 10 µM at α4β3δ GABAA receptor was over 500%; on α1β2γ2 GABAA receptor, 10 to 100%.
On the same counts, the results for `C[C@@]1(O)CC[C@H]2[C@H](CC[C@@H]3[C@@H]2CC[C@]2(C)[C@@H](C(=O)CN4CCN(S(C)(=O)=O)CC4)CC[C@@H]32)C1` [Entry 8] are over 500% and over 500%.
On the same counts, the results for `CC(=O)N1CCN(CC(=O)[C@H]2CC[C@H]3[C@@H]4CC[C@H]5C[C@](C)(O)[C@@H](C)C[C@@H]5[C@H]4CC[C@]23C)CC1` [Entry 27] are 100 to 500% and 100 to 500%.
For the compound `C[C@@]1(O)CC[C@H]2[C@H](CC[C@@H]3[C@@H]2CC[C@]2(C)[C@@H](C(=O)CN4CCC(O)C4)CC[C@@H]32)C1` (some centres unmarked) [Entry 4], the IC50 in assay [1] is 0.1 to 0.5 µM. The Emax at 10 µM at α1β2γ2 GABAA receptor was 100 to 500%.

In general, IC50 refers to the concentration needed to halve the response being measured.
